Values joined by “and” are separate entries in the source; they are usually repeats but may differ in a detail not shown here. Equal entries are not always repeated. Where two headings read alike, the source gives them in different places.

One series has as its system L. mexicana. Details: method as in doi:10.2174/1573407213666170405121810. As to conditions: pyridine compound of Figure 1A; read-out: IC50, leishmanicidal activity; cited from earlier work.
Another series concerns Leishmania. Details: method as in doi:10.1016/j.molstruc.2018.11.017. The note with it: natural product scaffold of Figure 1B; read-out: IC50, leishmanicidal activity; cited from earlier work.
Series [1] deals with T. cruzi (A1) epimastigotes. As to the kind of experiment: In vitro trypanocidal activity, Alamar Blue assay, 48 h. As to conditions: for Selectivity Index T. cruzi A1: CC50 (J774.2)/IC50; for IC50: Trypanosoma cruzi, 48 h, read-out: T. cruzi IC50 (µM ± SD) A1; for IC50 / Trypanocidal activity class in words, A1 strain: epimastigotes, A1 strain; for Trypanocidal activity class in words, A1 strain: classes by IC50. Format: cell-based, Trypanosoma cruzi. As for the experimental part: (§1) Both strains were maintained in liver infusion tryptose (LIT) medium supplemented with 10% FBS and 0.1% penicillin-streptomycin. They were preserved by transferring 1 × 10^6 parasites/mL into a new culture medium every week. […] The metabolic activity was determined by the Alamar Blue assay. Briefly, after the incubation period, 20 µL of 2.5 mM resazurin solution was added to each well and incubated for 3 h. Three independent experiments were performed in triplicate. The half-maximum inhibitory concentration (IC50) was determined using probit analysis.
Background: Alamar Blue is a resazurin reagent that responds to reducing activity.

Series [2] has as its system T. cruzi (NINOA) epimastigotes. The description is as above. As to conditions: for IC50: 48 h, read-out: T. cruzi IC50 (µM ± SD) NINOA; for IC50 / Trypanocidal activity class in words, NINOA strain: epimastigotes, NINOA strain; for Selectivity Index T. cruzi NINOA: CC50 (J774.2)/IC50; for Trypanocidal activity class in words, NINOA strain: classes by IC50. Format: cell-based, Trypanosoma cruzi. As for the experimental part: as §1

In series [3] the test system is L. mexicana (MHOM/MX/2017/UABJO17FCQEPS) (FCQEPS) promastigotes. Kind of series: In vitro leishmanicidal activity, MTT method, 48 h. Format: cell-based, Leishmania mexicana. The note with it: for Selectivity Index L. mexicana FCQEPS: CC50 (J774.2)/IC50; for IC50: 48 h, read-out: L. mexicana IC50 (µM ± SD) FCQEPS; for IC50 / Leishmanicidal activity class in words, FCQEPS strain: promastigotes, FCQEPS strain; for Leishmanicidal activity class in words, FCQEPS strain: classes by IC50. As for the experimental part: (§2) To determine the leishmanicidal activity of pyridine-2,5-dicarboxylates, the parasites, in their logarithmic growth phase (5 × 10^5 parasites/mL), were cultured in 96-well microliter plates with the corresponding pyridine-2,5-dicarboxylate compound at different concentrations (0.78–100 µM). Compounds were dissolved in DMSO in a final volume of 200 µL for 48 h at 26 °C. Parasites treated with DMSO (0.2%) were used as a negative control, while treatments with Glucantime and Amphotericin B, at the same concentrations, were used as positive controls. The metabolic activity of the cells was determined using the 3-(4,5-Dimethylthiazol-2-yl)-2,5-diphenyltetrazolium bromide (MTT) method. IC50 was determined using probit analysis. Three independent experiments were performed in triplicate, and the data were analyzed for statistical significance (p < 0.05) using Biostat 5.3.0 software.

In series [4] the test system is L. mexicana (MNYC/BZ/62/M379) (M379) promastigotes. As to the kind of experiment: In vitro leishmanicidal activity, MTT method, 48 h. As to conditions: for Selectivity Index L. mexicana M379: CC50 (J774.2)/IC50; for IC50: 48 h, read-out: L. mexicana IC50 (µM ± SD) M379; for IC50 / Leishmanicidal activity class in words, M379 strain: promastigotes, M379 strain; for Leishmanicidal activity class in words, M379 strain: classes by IC50. Format: cell-based, Leishmania mexicana. As for the experimental part:
as §2
A general note: Formazan colour is commonly taken as a measure of viable cells.

Series [5] can be described thus: Cytotoxicity assay, MTT method, 48 h. In kind it is cell-based, murine. As to conditions: mouse, J774.2 macrophage cells, J774.2 cell line, read-out: Macrophage J774.2 CC50 (µM ± SD). The procedure: (§3) A cytotoxicity assay was performed using the murine macrophage J774.2 cell line, which was recloned from the original ascites and solid tumor J774.1 (according to the manufacturer). The cells were cultured in RPMI medium supplemented with 10% SBF, 100 U […] penicillin, 100 µg/mL streptomycin, and glutamine (2 mM), and 5% CO2 atmosphere. The medium was changed every 2–3 days. Macrophages were used at 1 × 10^6 cells and were incubated with compounds at different concentrations (0.75–100 µM, respectively) at 37 °C for 48 h in a 5% CO2 atmosphere. DMSO was used as a negative control (0.2%). The metabolic activity of macrophages was determined by the MTT method. The percentage of cell viability was calculated, and the half-maximal cytotoxic concentration (CC50) was determined using probit analysis. Three independent assays were conducted in triplicate.

For a further series, the system named is T. cruzi. As to conditions: read-out: IC50, trypanocidal activity, cited from earlier work.
Series [6] has as its system murine macrophage J774.2 cell line. Kind of series: Cytotoxicity assay, MTT method, 48 h. Format: cell-based. The note with it: read-out: Macrophage J774.2 CC50 (µM ± SD). The procedure:
as §3

Usually IC50 stands for the concentration at which inhibition is half-maximal. As to `Cc1ccc(O)c(C(=O)c2cnc3[nH]nc(C)c3c2)c1` [Compound 7], the IC50 in the series with L. mexicana was 31 µM.
Turning to `CC1=CC[C@H](C(C)(C)NC(=S)N/N=C/c2ccc([N+](=O)[O-])cc2)CC1` [Compound 8d], the IC50 with Leishmania was 2400 nM.
By CC50 is commonly meant the concentration at which the toxic effect on the cells reaches its halfway point. As to `CCOC(=O)c1nc(C)c(C(=O)OCC23CC4CC(CC(C4)C2)C3)cc1-c1ccc(C)cc1` [Compound 10b], the “Selectivity Index T. cruzi A1” value in series [1] is reported as >1.8. The 50% inhibitory concentration (IC50) was 111 ± 1.14 µM in series [1]; < 26.4 µM in series [2] (Trypanosoma cruzi); 20.98 ± 0.15 µM in [2]; 92.93 ± 0.02 µM in series [3] (Leishmania mexicana); > 200 µM in series [4] (Leishmania mexicana). For the same molecule, the “Selectivity Index L. mexicana FCQEPS” value in series [3] is >2.1. Further, the “Selectivity Index L. mexicana M379” value in series [4] is recorded as >1. Also, the CC50 at 48 h in series [5] was > 200 µM.
On to `CCOC(=O)c1nc(C)c(C(=O)OCC23CC4CC(CC(C4)C2)C3)cc1-c1ccc(F)cc1` [Compound 10c], for which, in series [1], the “Selectivity Index T. cruzi A1” value is >5.2. For the same molecule, the IC50 was 38.2 ± 2.86 µM in [1]; 50.6 ± 1.06 µM in [2] (Trypanosoma cruzi); > 200 µM in series [3] (Leishmania mexicana); < 56 µM in [4] (Leishmania mexicana); 54.8 µM in series [4]. For the same molecule, the “Selectivity Index T. cruzi NINOA” value in [2] was >4.0. For the same molecule, the “Selectivity Index L. mexicana FCQEPS” value in [3] was >1. Further, the “Leishmanicidal activity class in words, FCQEPS strain” value in series [3] was “abolished their leishmanicidal activity”. Besides, the “Selectivity Index L. mexicana M379” value in series [4] was >3.6. In addition, in series [5], the CC50 at 48 h is > 200 µM.
`Clc1ccc(-c2csc(N/N=C/c3ccccn3)n2)cc1Cl` [Compound 11]: the IC50 in the series with T. cruzi (pyridine compound of Figure 1A) is 4000 nM.
As for `CCOC(=O)c1nc(C)c(C(=O)OCCC(C)CCC=C(C)C)cc1-c1ccccc1` (centres unmarked) [Compound 11a], the IC50 in series [1] is > 200 µM; in [2] (Trypanosoma cruzi), > 200 µM; in series [3] (Leishmania mexicana) it was 73 ± 1.78 µM; in series [4] (Leishmania mexicana), > 200 µM. In addition, in [2], the “Trypanocidal activity class in words, NINOA strain” value was “inactive”. In addition, in [3], the “Selectivity Index L. mexicana FCQEPS” value is 1.6. Further, the “Leishmanicidal activity class in words, M379 strain” value in [4] was “did not have antiparasitic activity”. Moreover, the CC50 at 48 h in series [5] was found to be 119 ± 7.3 µM.
With `CCOC(=O)c1nc(C)c(C(=O)OCCC(C)CCC=C(C)C)cc1-c1ccc(C)cc1` (centres unmarked) [Compound 11b], the “Selectivity Index T. cruzi A1” value in [1] is 3.3. For the same molecule, the 50% inhibitory concentration (IC50) is 51.6 ± 0.59 µM in series [1], > 200 µM in series [2] (Trypanosoma cruzi), > 200 µM in series [3] (Leishmania mexicana) and > 200 µM in series [4] (Leishmania mexicana). Also, in [2], the “Trypanocidal activity class in words, NINOA strain” value was “inactive”. Also, the “Leishmanicidal activity class in words, M379 strain” value in series [4] is on record as “did not have antiparasitic activity”. Also, in [5], the CC50 at 48 h was determined as 169 µM. The 50% cytotoxic concentration (CC50) in series [6] was 169.8 ± 1.3 µM.
In the case of `CCOC(=O)c1nc(C)c(C(=O)OCCC(C)CCC=C(C)C)cc1-c1ccc(F)cc1` (centres unmarked) [Compound 11c], in series [1], the “Selectivity Index T. cruzi A1” value is given as >8.0 and the IC50 worked out at 24.9 ± 4.1 µM. Moreover, in series [2], the “Selectivity Index T. cruzi NINOA” value is on record as >2.5. In addition, in series [2] (Trypanosoma cruzi), the IC50 came to 79.9 ± 2.6 µM. Also, in series [3], the “Selectivity Index L. mexicana FCQEPS” value is >1 and the “Leishmanicidal activity class in words, FCQEPS strain” value is reported as “abolished their leishmanicidal activity”. The IC50 in [3] (Leishmania mexicana) is > 200 µM. Moreover, in [4], the “Selectivity Index L. mexicana M379” value is >1 and the “Leishmanicidal activity class in words, M379 strain” value was “inactive”. Moreover, the half-inhibitory concentration (IC50) in series [4] (Leishmania mexicana) is > 200 µM. For the same molecule, the 50% cytotoxic concentration (CC50) at 48 h in series [5] is > 200 µM.
As for `CCOC(=O)c1nc(C)c(C(=O)OC/C=C(\C)CCC=C(C)C)cc1-c1ccccc1` [Compound 12a], the “Selectivity Index T. cruzi A1” value in [1] turned out to be 0.2. Also, the IC50 was 117.8 ± 0.94 µM in [1], 106 ± 1.43 µM in series [2] (Trypanosoma cruzi), 75.3 ± 4.28 µM in series [3] (Leishmania mexicana) and > 200 µM in [4] (Leishmania mexicana). Further, the “Trypanocidal activity class in words, A1 strain” value in series [1] is on record as “slight activity”. In addition, in series [2], the “Selectivity Index T. cruzi NINOA” value stood at 0.2. The “Trypanocidal activity class in words, NINOA strain” value in series [2] is “slight trypanocidal activity”. Further, the “Selectivity Index L. mexicana FCQEPS” value in series [3] is on record as 0.3. In addition, the “Leishmanicidal activity class in words, M379 strain” value in [4] is recorded as “did not have antiparasitic activity”. For the same molecule, the CC50 at 48 h in series [5] came out at 25 ± 0.8 µM.
On to `CCOC(=O)c1nc(C)c(C(=O)OC/C=C(\C)CCC=C(C)C)cc1-c1ccc(C)cc1` [Compound 12b, (E)-5-(3,7-Dimethylocta-2,6-dien-1-yl) 2-ethyl 6-methyl-3-(p-tolyl)pyridine-2,5-dicarboxylate], for which, in [1], the “Selectivity Index T. cruzi A1” value is >1; the half-maximal inhibitory concentration (IC50) was > 200 µM; the “Trypanocidal activity class in words, A1 strain” value is listed as “completely lose their trypanocidal activity”. In addition, the “Selectivity Index T. cruzi NINOA” value in [2] was >1. In addition, the IC50 in [2] (Trypanosoma cruzi) was > 200 µM. For the same molecule, in series [3], the “Selectivity Index L. mexicana FCQEPS” value is on record as >3.5. Moreover, the “Selectivity Index L. mexicana M379” value in series [4] is recorded as >3.6. In series [5], the CC50 at 48 h is > 200 µM.
On to `CCOC(=O)c1nc(C)c(C(=O)OC/C=C(\C)CCC=C(C)C)cc1-c1ccc(F)cc1` [Compound 12c], for which, in series [1], the “Selectivity Index T. cruzi A1” value is listed as >4.0. In addition, the half-maximal inhibitory concentration (IC50) came to 50.1 ± 1 µM in series [1], 49.1 ± 2.5 µM in [2] (Trypanosoma cruzi), 114 ± 7.03 µM in series [3] (Leishmania mexicana) and 85.98 ± 0.02 µM in series [4] (Leishmania mexicana). In addition, in [2], the “Selectivity Index T. cruzi NINOA” value is given as >4.1. In addition, in series [3], the “Selectivity Index L. mexicana FCQEPS” value is reported as >1.7. For the same molecule, the “Selectivity Index L. mexicana M379” value in series [4] is on record as >2.3. The cytotoxic concentration (CC50) at 48 h in series [5] is > 200 µM.
Regarding `CNC[C@H](O)[C@@H](O)[C@H](O)[C@H](O)CO.[O]=[Sb](=[O])[OH]` [Glc, Glucantime, reference compound], the “Selectivity Index L. mexicana FCQEPS” value in [3] is 2.2; in [3] (listed as Glucantime) it was 2.18 and 2. The IC50 in [3] (listed as Glucantime) was > 125 µM; in series [3], 125 ± 11.6 µM; in series [4] (listed as Glucantime), 134 µM and > 125 µM; in [4], 134 ± 4.32 µM. The “Selectivity Index L. mexicana M379” value in series [4] was found to be 2.0; in series [4] (listed as Glucantime), 2.03. In addition, the CC50 in series [6] came out at 273 µM.
`CC1=CC[C@@H](C(C)(C)Nc2nnc(-c3ccc(C)cc3)s2)CC1` [TDZ 2]: the IC50 in the series on T. cruzi (natural product scaffold of Figure 1B) is 1300 nM.

The values are drawn from PMC12566703, “Design, Synthesis, In Vitro and In Silico Biological Evaluation of New Pyridine-2,5-Dicarboxylates Esters Bearing Natural Source Fragments as Anti-Trypanosomatid Agents” (Pharmaceutics, 2025).
